The values below come from patent US7351724B2, “Oxadiazole ketone inhibitors of fatty acid amide hydrolase” (The Scripps Research Institute, priority 2004, dated 2008).

The target in assay [1] is T1, FAAH (Rattus norvegicus, UniProt P97612).
T1 construct: using a solubilized liver plasma membrane extract containing FMH; from tissue; host or cells: liver plasma membrane (solubilized extract)
T1 sequence (P97612 1-579): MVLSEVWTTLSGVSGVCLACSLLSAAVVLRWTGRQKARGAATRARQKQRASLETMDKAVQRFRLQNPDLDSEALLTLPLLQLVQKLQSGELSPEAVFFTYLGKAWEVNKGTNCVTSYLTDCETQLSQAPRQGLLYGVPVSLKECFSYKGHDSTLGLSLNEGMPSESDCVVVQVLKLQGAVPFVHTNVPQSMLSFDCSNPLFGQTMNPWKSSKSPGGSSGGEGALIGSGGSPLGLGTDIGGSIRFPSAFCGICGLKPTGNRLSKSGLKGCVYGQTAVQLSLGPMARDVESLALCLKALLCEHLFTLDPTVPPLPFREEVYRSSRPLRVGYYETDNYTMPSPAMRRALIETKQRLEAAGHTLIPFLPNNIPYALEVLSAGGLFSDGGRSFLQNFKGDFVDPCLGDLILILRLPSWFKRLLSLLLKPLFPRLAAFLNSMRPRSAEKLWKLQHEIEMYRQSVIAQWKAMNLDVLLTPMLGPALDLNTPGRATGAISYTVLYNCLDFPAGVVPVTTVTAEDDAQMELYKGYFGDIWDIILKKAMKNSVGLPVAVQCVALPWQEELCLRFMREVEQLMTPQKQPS
The assay can be described thus: FAAH enzyme assay, hydrolysis of 14C-oleamide by solubilized liver plasma membrane extract. Type of assay: biochemical. The protocol: All enzyme assays were performed at 20-23° C. using a solubilized liver plasma membrane extract containing […] in a reaction buffer of 125 mM Tris, 1 mM EDTA, 0.2% glycerol, 0.02% Triton X-100, 0.4 mM HEPES, pH 9.0 buffer (Patricelli, M. P. et al. Bioorg. Med. Chem. Lett. 1998, 8, 613-618; Patterson, J. E., et al. J. Am Chem. Soc. 1996, 118, 5938-5945). The initial rates of hydrolysis were monitored by following the breakdown of ^14C-oleamide to oleic acid as described previously (Cravatt, B. F. et al. Science 1995, 268, 1506-1509; Patricelli, M. P. et al., 1998). The inhibition was reversible, non time-dependent. Linear least squares fits were used for all reaction progress curves and R^2 values were consistently >0.97. IC50 values were determined from the inhibition observed at 3-5 different test compound concentrations (from three or more trials at each concentration) using the formula IC50=[I]/[(K0/Ki)−1], where K0 is the control reaction rate without inhibitor and Ki is the rate with test compound at concentration [I] (Conde-Frieboes, K., et al. J. Am. Chem. Soc. 1996, 118, 5519-5525). Ki values were determined by the Dixon Method (x-intercepts of weighted linear fits of [I] versus 1/rate plots at constant substrate concentration, which were converted to Ki values using the formula Ki=−xint/[1+[S]/Km]).

For assay [2], the target named is T2, triacylglycerol hydrolase (TGH) (Mus musculus, UniProt Q8VCT4).
T2 construct: from tissue
T2 sequence (Q8VCT4 19-565): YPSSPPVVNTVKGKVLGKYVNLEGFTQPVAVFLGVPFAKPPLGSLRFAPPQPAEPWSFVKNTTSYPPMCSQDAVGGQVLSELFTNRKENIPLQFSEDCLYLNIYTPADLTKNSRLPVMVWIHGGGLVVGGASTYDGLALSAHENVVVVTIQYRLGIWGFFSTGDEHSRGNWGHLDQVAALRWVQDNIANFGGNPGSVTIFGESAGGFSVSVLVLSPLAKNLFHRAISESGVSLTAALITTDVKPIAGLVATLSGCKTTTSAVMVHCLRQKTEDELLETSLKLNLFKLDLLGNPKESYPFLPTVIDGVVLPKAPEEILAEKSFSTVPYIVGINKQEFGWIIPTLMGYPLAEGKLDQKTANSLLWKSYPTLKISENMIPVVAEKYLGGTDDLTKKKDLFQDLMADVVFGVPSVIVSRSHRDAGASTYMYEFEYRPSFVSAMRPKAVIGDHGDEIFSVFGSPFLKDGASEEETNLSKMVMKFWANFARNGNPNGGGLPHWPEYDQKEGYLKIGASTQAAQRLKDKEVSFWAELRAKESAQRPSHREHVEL
The assay can be described thus: Proteome-wide serine hydrolase selectivity screen, competition with RPFP active site labeling. The class given is binding. The note with it: inhibition of RPFP labeling. From the text: (§1) Serine hydrolases represent one of the largest classes of enzymes collectively comprising approximately 3% of the predicted Drosophila proteome. Subclasses include serine proteases, lipases, esterases, amidases, and transacetylases.
Biotinylated (B) or fluorescently-tagged (rhodamine, R) PEG-fluorophosphonate (BPFP or RPFP, respectively) have been used to isolate and identify (BPFP) or quantitate (RPFP) proteome serine hydrolases through selective, irreversible active site labeling (Kidd, D., et al., 2001; Liu, Y., et al., 1999). Extending this to the assessment of inhibitor selectivity required incubation of the proteome with RPFP in the presence of systematically varied concentrations of inhibitor followed by SDS-PAGE to detect serine hydrolases sensitive to the inhibitor (Leung, D., et al., 2003). A resulting inhibition of RPFP active site labeling correlated with inhibitor affinity for the target and permitted the simultaneous assessment of competitive enzymes.
Two enzymes emerged from the screen as competitive targets for the oxadiazole ketone compounds detailed herein: triacylglycerol hydrolase (TGH) and an uncharacterized membrane-bound hydrolase that lacks known substrates and function (KIAA1363) (Kidd, D., et al., 2001; Liu, Y., et al., 1999; Leung, D., et al., 2003).

Assay [3] has as its target T3, FAAH (Mus musculus, UniProt O08914).
T3 construct: from tissue
T3 sequence (O08914 1-579): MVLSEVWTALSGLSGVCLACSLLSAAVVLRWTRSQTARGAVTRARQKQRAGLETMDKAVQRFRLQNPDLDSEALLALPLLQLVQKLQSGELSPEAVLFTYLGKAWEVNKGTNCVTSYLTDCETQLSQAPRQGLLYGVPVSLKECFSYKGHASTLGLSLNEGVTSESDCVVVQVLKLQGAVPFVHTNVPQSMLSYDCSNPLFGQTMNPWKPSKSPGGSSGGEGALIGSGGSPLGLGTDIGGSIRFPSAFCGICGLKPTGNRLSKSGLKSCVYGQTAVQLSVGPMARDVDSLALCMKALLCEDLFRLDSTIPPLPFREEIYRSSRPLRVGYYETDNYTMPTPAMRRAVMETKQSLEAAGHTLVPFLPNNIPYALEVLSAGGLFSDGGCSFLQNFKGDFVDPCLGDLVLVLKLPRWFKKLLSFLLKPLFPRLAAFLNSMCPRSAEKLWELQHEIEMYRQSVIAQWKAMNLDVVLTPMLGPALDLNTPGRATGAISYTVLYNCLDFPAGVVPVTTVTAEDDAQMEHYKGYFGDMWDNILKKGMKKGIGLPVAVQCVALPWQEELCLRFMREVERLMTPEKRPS
The assay is described as above. Type of assay: binding. The following applies: inhibition of RPFP labeling.
Excerpt: as §1

Another assay has as its target T4, KIAA1363 (Mus musculus, UniProt Q8BLF1).
T4 construct: from tissue
T4 sequence (Q8BLF1 1-408): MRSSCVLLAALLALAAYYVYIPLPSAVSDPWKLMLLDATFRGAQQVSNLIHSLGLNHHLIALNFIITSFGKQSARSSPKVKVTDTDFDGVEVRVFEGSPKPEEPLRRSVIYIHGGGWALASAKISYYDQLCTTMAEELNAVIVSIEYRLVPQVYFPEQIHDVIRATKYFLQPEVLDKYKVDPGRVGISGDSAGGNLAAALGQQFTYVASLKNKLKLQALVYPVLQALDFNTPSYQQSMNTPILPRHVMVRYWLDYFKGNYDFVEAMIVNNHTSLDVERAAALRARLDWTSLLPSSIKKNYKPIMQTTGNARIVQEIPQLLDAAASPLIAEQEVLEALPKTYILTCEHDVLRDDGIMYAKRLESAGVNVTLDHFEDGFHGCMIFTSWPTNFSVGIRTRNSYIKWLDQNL
The description is as above. The class given is binding. The following applies: inhibition of RPFP labeling, read-out: KIAA IC50.
Excerpt: as §1

In assay [4] the target is T5, FAAH (Homo sapiens, UniProt O00519).
T5 sequence (O00519 1-579): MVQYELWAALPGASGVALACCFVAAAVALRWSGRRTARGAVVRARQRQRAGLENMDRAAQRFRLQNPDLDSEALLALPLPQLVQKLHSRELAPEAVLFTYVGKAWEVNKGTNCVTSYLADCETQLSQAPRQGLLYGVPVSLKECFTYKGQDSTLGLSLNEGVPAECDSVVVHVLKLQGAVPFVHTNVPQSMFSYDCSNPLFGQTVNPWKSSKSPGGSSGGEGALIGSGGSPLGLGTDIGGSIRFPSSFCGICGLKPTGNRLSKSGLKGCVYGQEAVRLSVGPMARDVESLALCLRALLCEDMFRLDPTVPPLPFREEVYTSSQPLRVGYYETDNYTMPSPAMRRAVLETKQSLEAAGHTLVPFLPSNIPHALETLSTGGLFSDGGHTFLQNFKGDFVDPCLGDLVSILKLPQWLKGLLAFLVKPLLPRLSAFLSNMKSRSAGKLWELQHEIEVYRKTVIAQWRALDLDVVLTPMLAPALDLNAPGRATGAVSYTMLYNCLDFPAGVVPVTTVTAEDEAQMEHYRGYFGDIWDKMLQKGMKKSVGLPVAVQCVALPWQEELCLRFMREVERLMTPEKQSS
The following applies: cited from earlier work.

In assay [5] the test system is rats. The note with it: WO 04/033652; cited from earlier work.
The test system of assay [6] is rats. The following applies: cited from earlier work.
For assay [7], the system named is rats. The note with it: WO 02/087569; cited from earlier work.
Assay [8] relates to rats. The note with it: WO 02/087569; cited from earlier work. This is another data set of the same source.
Setting [9] is: Table 1, Dixon method, 14C-oleamide substrate, pH 9.0, 20-23° C., read-out: Ki.
Setting [10] is: Table 2 (repeats the enzyme assay Ki), read-out: FAAH Ki.

Like-named read-outs stand apart in the source and are kept apart here.

As to `O=C(CCCCCCc1ccccc1)c1nnc(-c2ccncc2)o1` [Example 10, 7-Phenyl-1-[5-(pyridin-4-yl)-1,3,4-oxadiazol-2-yl]-heptan-1-one], on FAAH [1] (setting [9]), the Ki came out at 1 nM. Besides, the IC50 in assay [2] was 30 nM; on FAAH [3], 20 nM; at KIAA1363, over 100000 nM.
In the case of `O=C(CCCCCCc1ccccc1)c1nnc(-c2ccccn2)o1` [Example 1, 7-Phenyl-1-[5-(pyridin-2-yl)-1,3,4-oxadiazol-2-yl]-heptan-1-one], the concentration for half-maximal inhibition (IC50) in assay [2] is 140 nM; on FAAH [3], 1 nM; at KIAA1363, 50000 nM.
Take `O=C(CCCCCCc1ccccc1)c1ncc(-c2ccccn2)o1` [OL-135]: at FAAH [4], the FAAH inhibition entry is “potent inhibitor”. Moreover, the “analgesic activity in tail emersion test” value in the assay with rats [5] was “analgesic activity”. Further, in the assay on rats [6], the “analgesic efficacy/activity in hot plate test” value is reported as “analgesic activity”.
In the case of `O=C(CCCCCCc1ccccc1)c1nnc(-c2ccco2)o1` [Example 11], the values for the IC50 (in assay [2]; at FAAH [3]; at KIAA1363) were 80 nM, 1 nM and over 100000 nM, respectively.
Take `O=C(CCCCCCc1ccccc1)c1nnc(-c2ccccc2)o1` [Example 6, 7-Phenyl-1-(5-phenyl-1,3,4-oxadiazol-2-yl)-heptan-1-one]: the Ki on FAAH [1] (setting [9]) and at FAAH [1] (setting [10]) was 2 nM in each case. Further, the figures for the IC50 (in assay [2]; on FAAH [3]; at KIAA1363) were 250 nM, 25 nM and over 100000 nM, respectively.
For `O=C(CCCCCCc1ccccc1)c1nnc(-c2cccnc2)o1` [Example 9, 7-Phenyl-1-[5-(pyridin-3-yl)-1,3,4-oxadiazol-2-yl]-heptan-1-one], the Ki on FAAH [1] (setting [9]) was determined as 1 nM. The IC50 in assay [2] is 100 nM; on FAAH [3] it was 20 nM; on KIAA1363 it was over 100000 nM.
In the case of `CCCCCCCC/C=C\CCCCCCCC(=O)c1nnc(-c2ccccc2)o1` [Example 7, 1-(5-Phenyl-1,3,4-oxadiazol-2-yl)-octadec-9-en-1-one], the inhibition constant (Ki) at FAAH [1] (setting [9]) is 16 nM.
Regarding `Cc1nc(-c2ccccc2)c(-c2ccccc2)n1CCCCCCNC(=O)Oc1ccccc1F` [BMS-1], in the assay on rats [7], the “analgesic effect, Hargraves test” value is “analgesic effect”. In addition, in the assay with rats [8], the “analgesic effect, Chung spinal nerve ligation model” value is “analgesic effect”.
With `O=C(CCCCCc1ccccc1)c1nnc(-c2ccccn2)o1` [Example 2, 6-Phenyl-1-[5-(pyridin-2-yl)-1,3,4-oxadiazol-2-yl]-hexan-1-one], the Ki on FAAH [1] (setting [9]) was found to be 0.85 nM. In addition, the values for the IC50 (in assay [2]; at FAAH [3]; at KIAA1363) were 30 nM, 4 nM and 90000 nM, respectively.
On to `O=C(CCCCCCCCc1ccccc1)c1nnc(-c2ccccn2)o1` [Example 4, 9-Phenyl-1-[5-(pyridin-2-yl)-1,3,4-oxadiazol-2-yl]-nonan-1-one], for which the Ki on FAAH [1] (setting [9]) and on FAAH [1] (setting [10]) was 0.83 nM throughout. Besides, the values for the half-maximal inhibitory concentration (IC50) (in assay [2]; at FAAH [3]; on KIAA1363) were 500 nM, 0.8 nM and 3000 nM, respectively.
Regarding `CCCCCCCC/C=C\CCCCCCCC(=O)c1nnc(-c2ccccn2)o1` [Example 5, 1-[5-(Pyridin-2-yl)-1,3,4-oxadiazol-2-yl]-octadec-9-en-1-one], the Ki on FAAH [1] (setting [9]) worked out at 3 nM.
`O=C(CCCCCCCc1ccccc1)c1nnc(-c2ccccn2)o1` [Example 3, 8-Phenyl-1-[5-(pyridin-2-yl)-1,3,4-oxadiazol-2-yl]-octan-1-one]: the Ki on FAAH [1] (setting [9]) was found to be 0.77 nM. Besides, the figures for the IC50 (in [2]; at FAAH [3]; on KIAA1363) were 200 nM, 0.6 nM and 60000 nM, respectively.

What is called Ki is the dissociation constant of the complex between target and ligand, obtained from inhibition or displacement. Broadly, the IC50 is the concentration that gives 50% inhibition.
